Values after ≈ are worked out from the molar mass of the structure shown. “Also recorded” adds a separate entry of the source.
Legend:
[1] = Specific surface area (Coulter SA3100, BET); type: physicochemical
Method: Specific surface area was measured using the following parameters:
Instrument: Coulter SA3100
(§1) Table 8 illustrates the maximum particle size and specific surface area of ezetimibe Form B before and after micronization. The maximum particle size was determined by microscope observation.

[2] = Maximum particle size by microscope observation; type: physicochemical
Method: (§2) 1 g mixture of micronized Form A and B was stored at 30° C. under 100% RH for 8 days. The mixture of Form A and Form B converted to 100% Form B after storage. Micronized Form B contained 4.1% water by weight based on Karl Fischer analysis. The micronized sample was analyzed before and after storage by XRD. The material was dispersed in light mineral oil before measurement for microscope observation. Form B was in the shape of needles and plates.
as §1

[3] = Effect of pressing on crystalline stability; type: physicochemical; details: pressed 1 minute, approximately 1300 psi
Method: Crystalline stability of Form A and Form B was tested by pressing each of the forms for about 1 minute under a pressure of about 1300 psi. […] Form A is also stable under pressing.
Forms A and B were studied under pressure. The forms were pressed for 1 minute under a pressure of approximately 1300 psi.

[4] = Transformation of ezetimibe crystal forms by heating (XRD); type: physicochemical
Text: In the following examples, the forms of ezetimibe were identified using Scintag X-ray powder diffractometer model X'TRA, Cu-tube solid state detector. The sample holder was a round standard aluminum sample holder with rough zero background quartz plate with a cavity of 25 (diameter) X 0.5 mm (depth). The scanning parameters were range: 2-40 degrees two-theta; scan mode: continuous scan; step size: 0.05 deg.; and a rate of 3 deg/min.
After two hours, each sample was removed and analyzed by XRD.

[5] = Stability of Form B in water slurry; type: physicochemical
Method: Ezetimibe Form B was stirred in soft water (25 ml) for 4 h at room temperature (heavy slurry). The mixture was filtered and washed with water (20 ml). The wet sample, after washing, was Form B. The solid was dried under vacuum at 45° C. for 18 hrs. The dry sample contained Form B (20-30% by weight) and Form A. 95% yield.

[6] = Transformation under different relative humidities (XRD and KF); type: physicochemical; details: for Crystal form / Water content by KF: 25-30° C.
Method: 500 mg samples were placed in an open glass bottle at a temperature of 25° C. to 30° C., under various humidity for a sufficient time (1-14 days) for each sample to equilibrate. At the end of each time period, each sample was removed and analyzed by XRD and by KF. The results are summarized below in Tables 6-7 for starting Forms A and B, respectively.

[7] = Micronization (milling) crystal form stability; type: physicochemical
Method: Micronization of Form B is preferably carried out by milling Form B using a feed air rate of about 6 bar and a grinding air pressure of about 5 bar, for about 20 to about 30 minutes.
Form B was milled by a 50 mm micronizer for about 20 to 30 minutes. The feed air rate was 6.0 bar and the grinding air was 5.0 bar. The sample was analyzed before and after micronization by XRD. During micronization 65% (estimated by XRD and by KF) of Form B converted to Form A. The estimated water content is 1-2% by weight. Micronization of Form A on the other hand results in Form A.

[8] = Particle size distribution by Malvern laser diffraction; type: physicochemical; details: prime particles with sonication
Method: A Malvern Laser Diffraction instrument was used to characterize the particle size distribution of ezetimibe. A Mastersizer S model equipped with a small cell dispersion unit MS1 with a digital dispersion unit controller was used. The measurement was done using range lens 300RF (working range 0.05-900 mcm), beam length: 2.40 mm and presentation 3NHE. In this case, a solution of dioctyl sulfosuccinate sodium salt in n-hexane was used as a dilution medium. The measurement was started after 1 minute of recirculation after suspension addition into measurement cell at speed rate 2000±10 rpm.
The suspension was prepared of 0.1 g sample in solution 0.065% dioctyl sulfosuccinate sodium salt in n-hexane by vortex for 10 seconds and by sonication for 30 seconds. According to the accepted rules of Good Manufacture Procedures, the sample of ezetimibe is preferably measured after a successful blank measurement (% obscuration NMT 0.1% is performed.

[9] = Storage of micronized Form A and B mixture at 30° C., 100% RH; type: physicochemical; details: 8 days
Method: as §2

[10] = cited from earlier work
[11] = Solubility of ezetimibe; type: physicochemical; details: water
[12] = reported; cited from earlier work
[13] = 50 mm micronizer, 20 to 30 minutes

O=C1[C@H](CC[C@H](O)c2ccc(F)cc2)[C@@H](c2ccc(O)cc2)N1c1ccc(F)cc1 [Form B, 1-(4-fluorophenyl)-3(R)-[3-(4-fluorophenyl)-3(S)-hydroxypropyl]-4(S)-(4-hydroxyphenyl)-2-azetidinone]
SSA ([1]; After micronization): 6.8 m^2/g | SSA ([1]; Before micronization): 3.4 m^2/g | Maximum particle size ([2]; After micronization): 20 μm | Maximum particle size ([2]; Before micronization): 400 μm | Sample after pressing (crystal form) [3]: retains its crystalline form; also recorded: Form B | heat transformation result (crystal form by XRD) ([4]; 45° C., 18 h): Form A | heat transformation result (crystal form by XRD) ([4]; 60° C., 2 h, atmospheric oven): Form A | heat transformation result (crystal form by XRD) ([4]; 90° C., 2 h, atmospheric oven): Form A | heat transformation result (crystal form by XRD) ([4]; 110° C., 2 h, atmospheric oven): Form A | Form B content of dry sample after water slurry ([5]; dried under vacuum at 45° C. for 18 hrs, remainder Form A): 20-30 % by weight | crystal form of wet sample after water slurry ([5]; soft water, 4 h, room temperature, filtered and washed): Form B | Crystal form ([6]; RH 0%, 14 days): Form A | Water content by KF ([6]; RH 0%, 14 days): 0.1 wt % | Crystal form ([6]; RH 20%, 7 days): Form A + ˜5% B* | Water content by KF ([6]; RH 20%, 7 days): 0.2 wt % | Crystal form ([6]; RH 40%, 14 days): Form B | Water content by KF ([6]; RH 40%, 14 days): 4.0 wt % | Crystal form ([6]; RH 80%, 14 days): Form B | Water content by KF ([6]; RH 80%, 14 days): 4.3 wt % | Crystal form ([6]; RH 100%, 14 days): Form B | Water content by KF ([6]; RH 100%, 14 days): 4.4 wt % | estimated water content after micronization [7, 13]: 1-2 % by weight | Form B converted to Form A during micronization ([7]; 50 mm micronizer, 20 to 30 minutes, estimated by XRD and by KF): 65%

O=C1[C@H](CC[C@H](O)c2ccc(F)cc2)[C@@H](c2ccc(O)cc2)N1c1ccc(F)cc1 [Form A, 1-(4-fluorophenyl)-3(R)-[3-(4-fluorophenyl)-3(S)-hydroxypropyl]-4(S)-(4-hydroxyphenyl)-2-azetidinone]
Sample after pressing (crystal form) [3]: stable; also recorded: Form A + ˜5% B | heat transformation result (crystal form by XRD) ([4]; 60° C., 2 h, atmospheric oven): Form A | heat transformation result (crystal form by XRD) ([4]; 90° C., 2 h, atmospheric oven): Form A | heat transformation result (crystal form by XRD) ([4]; 110° C., 2 h, atmospheric oven): Form A | stability upon heating ([4]; even at high temperatures): stable | Crystal form ([6]; RH 0%, 12 days): Form A | Water content by KF ([6]; RH 0%, 12 days): 0.2 wt % | Crystal form ([6]; RH 20%, 7 days): Form A + ˜5% B* | Water content by KF ([6]; RH 20%, 7 days): 0.2 wt % | Crystal form ([6]; RH 40%, 12 days): Form A + ˜5-10% B* | Water content by KF ([6]; RH 40%, 12 days): 0.3 wt % | Crystal form ([6]; RH 80%, 12 days): Form B | Water content by KF ([6]; RH 80%, 12 days): 4.5 wt % | Crystal form ([6]; RH 100%, 1 day): Form B | Water content by KF ([6]; RH 100%, 1 day): 4.3 wt % | d (0.5) [8]: 3.18-3.33 microns | d (0.9) [8]: 7.95-8.05 microns | d(0.1) [8]: 0.39 microns | crystal form after micronization [7, 13]: Form A | stability upon micronization ([7]; milling, feed air 6 bar, grinding air 5 bar): stable

O=C1[C@H](CC[C@H](O)c2ccc(F)cc2)[C@@H](c2ccc(O)cc2)N1c1ccc(F)cc1 [mixture of micronized Form A and B]
Form B content after storage [9]: 100%

O=C1[C@H](CC[C@H](O)c2ccc(F)cc2)[C@@H](c2ccc(O)cc2)N1c1ccc(F)cc1 [Ezetimibe, 1-(4-fluorophenyl)-3(R)-[3-(4-fluorophenyl)-3(S)-hydroxypropyl]-4(S)-(4-hydroxyphenyl)-2-azetidinone]
solubility in ethanol, methanol, and acetone ([10]; ethanol, methanol, acetone): freely to very soluble | solubility in water ([10]; water): practically insoluble | solubility [11]: 10 µg/mL (≈ 24.4 µM) | stability at ambient temperature [12]: stable

O=C1[C@H](CC[C@H](O)c2ccc(F)cc2)[C@@H](c2ccc(O)cc2)N1c1ccc(F)cc1 [Amorphous Form, 1-(4-fluorophenyl)-3(R)-[3-(4-fluorophenyl)-3(S)-hydroxypropyl]-4(S)-(4-hydroxyphenyl)-2-azetidinone]
heat transformation result (crystal form by XRD) ([4]; 60° C., 2 h, atmospheric oven): Amorphous Form | heat transformation result (crystal form by XRD) ([4]; 90° C., 2 h, atmospheric oven): Form A | temperature at which it transforms to Form A ([4]; heating): above 60 °C

O=C1[C@H](CC[C@H](O)c2ccc(F)cc2)[C@@H](c2ccc(O)cc2)N1c1ccc(F)cc1 [Micronized Form B]
water content by Karl Fischer after storage [9]: 4.1 % by weight | stability upon slurrying [5]: stable | stability in relative humidity ([6]; relative humidity of about 40% to about 100%): stable
